Assay results: the kinase profiling compilation of Christmann-Franck et al. (2016)

Legend:
Assay in all cases: radiometric filter-binding kinase assay, Kinase HotSpot
Conditions in all cases: compound 0.5 µM; ATP 10 µM
NTRK3 (human) = NTRK3 (human) (UniProt Q16288)
TNK2 (human) = TNK2 (human) (UniProt Q07912)
MAP3K8 (human) = MAP3K8 (human) (UniProt P41279)
CDK9 CCNT1 (human) = CDK9 CCNT1 (human) (UniProt P50750+O60563)
CDK9 CCNK (human) = CDK9 CCNK (human) (UniProt O75909+P50750)
MAP3K2 (human) = MAP3K2 (human) (UniProt Q9Y2U5)
IRAK4 (human) = IRAK4 (human) (UniProt Q9NWZ3)
SGK3 (human) = SGK3 (human) (UniProt Q96BR1)
RPS6KB1 (human) = RPS6KB1 (human) (UniProt P23443)
Sequence of RPS6KB1 (human) (P23443 whole entry, looked up): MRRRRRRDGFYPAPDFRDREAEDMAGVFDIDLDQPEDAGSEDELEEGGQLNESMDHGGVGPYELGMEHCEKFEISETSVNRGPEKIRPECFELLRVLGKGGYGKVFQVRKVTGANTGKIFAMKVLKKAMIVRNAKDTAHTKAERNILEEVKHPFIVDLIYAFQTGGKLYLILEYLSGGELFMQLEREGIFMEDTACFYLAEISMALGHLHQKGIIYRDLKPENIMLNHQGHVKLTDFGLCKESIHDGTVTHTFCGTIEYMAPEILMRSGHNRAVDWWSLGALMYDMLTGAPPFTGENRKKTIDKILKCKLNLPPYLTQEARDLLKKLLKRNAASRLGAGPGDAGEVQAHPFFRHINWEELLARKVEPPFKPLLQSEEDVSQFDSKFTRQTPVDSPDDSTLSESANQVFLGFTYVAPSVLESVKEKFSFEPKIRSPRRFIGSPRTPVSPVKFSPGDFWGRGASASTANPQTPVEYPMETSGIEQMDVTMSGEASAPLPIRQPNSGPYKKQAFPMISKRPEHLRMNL

FLT1 (human) = FLT1 (human) (UniProt P17948)
TEK (human) = TEK (human) (UniProt Q02763)
Sequence of TEK (human) (Q02763 whole entry, looked up): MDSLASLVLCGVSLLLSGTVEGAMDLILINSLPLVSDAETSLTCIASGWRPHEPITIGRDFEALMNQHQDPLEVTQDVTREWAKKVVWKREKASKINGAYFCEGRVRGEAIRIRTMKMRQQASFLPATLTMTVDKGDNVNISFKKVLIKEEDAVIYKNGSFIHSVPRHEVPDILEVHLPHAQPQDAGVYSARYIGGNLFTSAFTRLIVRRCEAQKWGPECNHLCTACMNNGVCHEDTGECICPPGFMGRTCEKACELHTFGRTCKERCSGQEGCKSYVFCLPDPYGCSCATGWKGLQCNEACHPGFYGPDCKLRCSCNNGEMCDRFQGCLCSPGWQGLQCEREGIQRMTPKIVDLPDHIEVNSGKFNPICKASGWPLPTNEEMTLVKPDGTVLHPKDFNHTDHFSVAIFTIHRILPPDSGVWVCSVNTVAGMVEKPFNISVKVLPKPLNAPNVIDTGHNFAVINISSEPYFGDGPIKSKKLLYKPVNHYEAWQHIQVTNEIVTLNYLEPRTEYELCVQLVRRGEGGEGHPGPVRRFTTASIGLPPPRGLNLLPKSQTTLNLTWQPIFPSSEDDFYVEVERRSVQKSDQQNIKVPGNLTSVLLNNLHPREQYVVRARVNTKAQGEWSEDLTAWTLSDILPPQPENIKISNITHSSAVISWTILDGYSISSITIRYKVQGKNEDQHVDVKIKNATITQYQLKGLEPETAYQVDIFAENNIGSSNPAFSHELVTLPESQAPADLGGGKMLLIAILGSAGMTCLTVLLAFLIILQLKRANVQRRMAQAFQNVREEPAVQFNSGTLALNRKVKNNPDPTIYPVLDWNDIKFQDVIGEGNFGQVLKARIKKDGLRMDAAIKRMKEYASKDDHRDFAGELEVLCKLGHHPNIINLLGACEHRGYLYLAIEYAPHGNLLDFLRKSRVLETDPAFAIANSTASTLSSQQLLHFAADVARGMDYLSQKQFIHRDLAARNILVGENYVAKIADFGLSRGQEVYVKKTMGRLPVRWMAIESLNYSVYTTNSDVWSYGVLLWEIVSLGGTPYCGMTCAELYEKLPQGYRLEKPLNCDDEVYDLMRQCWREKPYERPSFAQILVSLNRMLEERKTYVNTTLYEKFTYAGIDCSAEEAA

FGR (human) = FGR (human) (UniProt P09769)
Sequence of FGR (human) (P09769 whole entry, looked up): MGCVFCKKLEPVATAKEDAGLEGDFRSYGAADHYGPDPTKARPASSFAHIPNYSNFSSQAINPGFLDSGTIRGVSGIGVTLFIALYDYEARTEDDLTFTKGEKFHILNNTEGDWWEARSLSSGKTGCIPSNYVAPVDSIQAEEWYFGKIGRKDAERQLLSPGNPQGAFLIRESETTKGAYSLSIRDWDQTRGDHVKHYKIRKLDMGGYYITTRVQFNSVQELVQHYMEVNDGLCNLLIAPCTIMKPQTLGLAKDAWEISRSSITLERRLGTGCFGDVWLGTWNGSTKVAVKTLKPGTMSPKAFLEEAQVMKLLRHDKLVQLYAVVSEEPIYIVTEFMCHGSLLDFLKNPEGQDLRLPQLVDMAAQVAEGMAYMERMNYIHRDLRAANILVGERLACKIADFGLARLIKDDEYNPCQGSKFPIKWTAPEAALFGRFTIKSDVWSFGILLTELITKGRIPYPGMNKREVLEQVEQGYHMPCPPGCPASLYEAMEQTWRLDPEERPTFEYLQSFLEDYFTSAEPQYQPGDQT

SYK (human) = SYK (human) (UniProt P43405)
GRK7 (human) = GRK7 (human) (UniProt Q8WTQ7)
PLK3 (human) = PLK3 (human) (UniProt Q9H4B4)
SGK2 (human) = SGK2 (human) (UniProt Q9HBY8)
CSNK1E (human) = CSNK1E (human) (UniProt P49674)
STK10 (human) = STK10 (human) (UniProt O94804)
Sequence of STK10 (human) (O94804 whole entry, looked up): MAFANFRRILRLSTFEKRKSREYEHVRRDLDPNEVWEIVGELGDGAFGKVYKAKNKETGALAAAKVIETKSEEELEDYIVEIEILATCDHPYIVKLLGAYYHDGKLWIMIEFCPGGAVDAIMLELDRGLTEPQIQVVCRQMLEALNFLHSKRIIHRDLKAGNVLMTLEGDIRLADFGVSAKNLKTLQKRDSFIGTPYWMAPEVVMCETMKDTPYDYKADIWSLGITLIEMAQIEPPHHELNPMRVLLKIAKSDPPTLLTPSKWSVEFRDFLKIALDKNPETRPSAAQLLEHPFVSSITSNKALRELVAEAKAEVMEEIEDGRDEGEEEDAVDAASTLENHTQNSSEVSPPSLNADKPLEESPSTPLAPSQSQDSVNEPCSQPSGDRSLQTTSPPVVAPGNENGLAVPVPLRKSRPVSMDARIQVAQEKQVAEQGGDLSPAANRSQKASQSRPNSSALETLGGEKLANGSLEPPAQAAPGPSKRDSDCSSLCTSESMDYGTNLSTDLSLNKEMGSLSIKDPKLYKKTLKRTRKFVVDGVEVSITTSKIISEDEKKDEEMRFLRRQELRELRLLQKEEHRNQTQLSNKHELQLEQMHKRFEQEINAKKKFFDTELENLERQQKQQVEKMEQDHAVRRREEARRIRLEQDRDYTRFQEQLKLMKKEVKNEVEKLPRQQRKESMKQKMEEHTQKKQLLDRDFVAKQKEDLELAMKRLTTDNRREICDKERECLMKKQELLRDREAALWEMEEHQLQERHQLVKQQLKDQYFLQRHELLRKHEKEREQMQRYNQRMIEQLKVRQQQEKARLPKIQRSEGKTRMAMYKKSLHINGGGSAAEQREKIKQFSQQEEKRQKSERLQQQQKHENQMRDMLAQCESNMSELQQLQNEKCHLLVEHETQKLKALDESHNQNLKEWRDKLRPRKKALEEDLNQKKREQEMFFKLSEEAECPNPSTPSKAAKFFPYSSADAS

PRKCH (human) = PRKCH (human) (UniProt P24723)
STK4 (human) = STK4 (human) (UniProt Q13043)
HIPK3 (human) = HIPK3 (human) (UniProt Q9H422)
MAP4K5 (human) = MAP4K5 (human) (UniProt Q9Y4K4)
CDK5 CDK5R1 p35 (human) = CDK5 CDK5R1 p35 (human) (UniProt Q00535+Q15078)
AURKC (human) = AURKC (human) (UniProt Q9UQB9)
Sequence of AURKC (human) (Q9UQB9 whole entry, looked up): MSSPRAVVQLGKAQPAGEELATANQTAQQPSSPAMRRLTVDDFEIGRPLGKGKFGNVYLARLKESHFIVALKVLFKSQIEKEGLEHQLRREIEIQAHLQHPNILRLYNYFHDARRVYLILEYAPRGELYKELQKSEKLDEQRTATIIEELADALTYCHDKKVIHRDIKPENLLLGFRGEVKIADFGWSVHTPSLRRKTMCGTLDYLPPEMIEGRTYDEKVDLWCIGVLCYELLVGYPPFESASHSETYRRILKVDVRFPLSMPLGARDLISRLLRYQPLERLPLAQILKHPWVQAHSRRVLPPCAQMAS

CAMK1D (human) = CAMK1D (human) (UniProt Q8IU85)
Sequence of CAMK1D (human) (Q8IU85 whole entry, looked up): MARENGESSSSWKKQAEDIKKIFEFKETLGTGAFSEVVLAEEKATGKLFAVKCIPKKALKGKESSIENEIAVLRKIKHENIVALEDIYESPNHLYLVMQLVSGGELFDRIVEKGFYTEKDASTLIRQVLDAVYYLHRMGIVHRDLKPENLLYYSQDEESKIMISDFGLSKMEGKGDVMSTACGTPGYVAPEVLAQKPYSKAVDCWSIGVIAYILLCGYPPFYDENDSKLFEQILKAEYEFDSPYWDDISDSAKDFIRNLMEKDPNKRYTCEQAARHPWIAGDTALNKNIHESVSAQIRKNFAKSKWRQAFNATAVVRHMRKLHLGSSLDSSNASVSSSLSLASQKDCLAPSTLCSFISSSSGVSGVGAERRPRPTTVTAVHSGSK

NTRK1 (human) = NTRK1 (human) (UniProt P04629)
MAP3K3 (human) = MAP3K3 (human) (UniProt Q99759)
SLK (human) = SLK (human) (UniProt Q9H2G2)
MAP3K11 (human) = MAP3K11 (human) (UniProt Q16584)
PAK2 (human) = PAK2 (human) (UniProt Q13177)
CLK1 (human) = CLK1 (human) (UniProt P49759)
VRK1 (human) = VRK1 (human) (UniProt Q99986)
HIPK4 (human) = HIPK4 (human) (UniProt Q8NE63)
RAF1 (human) = RAF1 (human) (UniProt P04049)
WEE1 (human) = WEE1 (human) (UniProt P30291)
NEK1 (human) = NEK1 (human) (UniProt Q96PY6)
HIPK1 (human) = HIPK1 (human) (UniProt Q86Z02)
Sequence of HIPK1 (human) (Q86Z02 whole entry, looked up): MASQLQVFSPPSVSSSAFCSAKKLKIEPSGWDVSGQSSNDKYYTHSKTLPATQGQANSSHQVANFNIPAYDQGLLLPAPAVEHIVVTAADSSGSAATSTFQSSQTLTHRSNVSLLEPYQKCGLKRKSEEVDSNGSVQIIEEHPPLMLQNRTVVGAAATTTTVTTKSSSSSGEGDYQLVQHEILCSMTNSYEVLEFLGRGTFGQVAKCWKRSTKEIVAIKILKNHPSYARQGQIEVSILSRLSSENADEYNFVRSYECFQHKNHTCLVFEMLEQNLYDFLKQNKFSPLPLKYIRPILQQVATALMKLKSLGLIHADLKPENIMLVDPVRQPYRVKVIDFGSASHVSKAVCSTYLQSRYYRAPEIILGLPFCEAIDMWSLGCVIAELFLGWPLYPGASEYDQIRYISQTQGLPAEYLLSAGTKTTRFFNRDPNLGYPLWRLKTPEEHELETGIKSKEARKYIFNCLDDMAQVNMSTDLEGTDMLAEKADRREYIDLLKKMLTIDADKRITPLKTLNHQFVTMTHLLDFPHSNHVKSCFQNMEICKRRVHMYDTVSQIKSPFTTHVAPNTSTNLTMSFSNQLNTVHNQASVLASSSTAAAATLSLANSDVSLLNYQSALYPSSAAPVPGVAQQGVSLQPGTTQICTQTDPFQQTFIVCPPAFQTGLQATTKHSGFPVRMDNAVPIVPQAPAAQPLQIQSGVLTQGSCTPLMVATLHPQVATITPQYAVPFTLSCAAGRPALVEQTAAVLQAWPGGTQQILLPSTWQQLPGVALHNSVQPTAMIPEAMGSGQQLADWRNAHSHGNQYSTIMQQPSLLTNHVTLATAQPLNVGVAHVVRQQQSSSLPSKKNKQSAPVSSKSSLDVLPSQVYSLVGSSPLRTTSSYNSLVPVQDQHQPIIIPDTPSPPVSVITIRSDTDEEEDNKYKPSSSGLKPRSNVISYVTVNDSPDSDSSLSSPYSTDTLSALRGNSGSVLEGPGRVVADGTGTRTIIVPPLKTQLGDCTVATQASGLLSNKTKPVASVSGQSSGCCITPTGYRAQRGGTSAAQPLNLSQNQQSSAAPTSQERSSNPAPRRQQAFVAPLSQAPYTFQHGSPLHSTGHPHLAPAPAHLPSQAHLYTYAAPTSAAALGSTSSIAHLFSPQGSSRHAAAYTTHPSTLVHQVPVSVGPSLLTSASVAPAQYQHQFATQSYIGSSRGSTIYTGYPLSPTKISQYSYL

PNCK (human) = PNCK (human) (UniProt Q6P2M8)
MAPKAPK2 (human) = MAPKAPK2 (human) (UniProt P49137)
AURKA (human) = AURKA (human) (UniProt O14965)
TAOK3 (human) = TAOK3 (human) (UniProt Q9H2K8)
FGFR4 (human) = FGFR4 (human) (UniProt P22455)

## CCCNC(=O)Nc1ccc(Oc2ncnc3cc(OC)c(OC)cc23)cc1Cl
NTRK3 (human)
  residual activity: 89%
TNK2 (human)
  residual activity: 96.5%
MAP3K8 (human)
  residual activity: 104%
CDK9 CCNT1 (human)
  residual activity: 98%
CDK9 CCNK (human)
  residual activity: 103%
MAP3K2 (human)
  residual activity: 89.5%
IRAK4 (human)
  residual activity: 92%
SGK3 (human)
  residual activity: 95.5%
RPS6KB1 (human)
  residual activity: 90.6%
FLT1 (human)
  residual activity: 65.2%
TEK (human)
  residual activity: 87%
FGR (human)
  residual activity: 70.2%
SYK (human)
  residual activity: 97.5%
GRK7 (human)
  residual activity: 94.7%
PLK3 (human)
  residual activity: 95%
SGK2 (human)
  residual activity: 97.1%
CSNK1E (human)
  residual activity: 78.5%
STK10 (human)
  residual activity: 35%
PRKCH (human)
  residual activity: 101%
STK4 (human)
  residual activity: 92.8%
HIPK3 (human)
  residual activity: 96.2%
MAP4K5 (human)
  residual activity: 54.6%
CDK5 CDK5R1 p35 (human)
  residual activity: 98%
AURKC (human)
  residual activity: 71.6%
CAMK1D (human)
  residual activity: 96.8%
NTRK1 (human)
  residual activity: 93.2%
MAP3K3 (human)
  residual activity: 95.3%
SLK (human)
  residual activity: 80%
MAP3K11 (human)
  residual activity: 89.2%
PAK2 (human)
  residual activity: 81.4%
CLK1 (human)
  residual activity: 96.2%
VRK1 (human)
  residual activity: 104%
HIPK4 (human)
  residual activity: 93.5%
RAF1 (human)
  residual activity: 85.4%
WEE1 (human)
  residual activity: 92.9%
NEK1 (human)
  residual activity: 91.8%
HIPK1 (human)
  residual activity: 96.8%
PNCK (human)
  residual activity: 95.4%
MAPKAPK2 (human)
  residual activity: 101%
AURKA (human)
  residual activity: 89.2%
TAOK3 (human)
  residual activity: 95.9%
FGFR4 (human)
  residual activity: 73.9%

## COc1cc2nccc(Oc3ccc(NC(=S)NC(=O)c4ccccc4C)cc3)c2cc1OC
NTRK3 (human)
  residual activity: 86.1%
TNK2 (human)
  residual activity: 26.9%
MAP3K8 (human)
  residual activity: 94.1%
CDK9 CCNT1 (human)
  residual activity: 104%
CDK9 CCNK (human)
  residual activity: 108%
MAP3K2 (human)
  residual activity: 83.1%
IRAK4 (human)
  residual activity: 82.4%
SGK3 (human)
  residual activity: 98.3%
RPS6KB1 (human)
  residual activity: 98%
FLT1 (human)
  residual activity: 89.8%
TEK (human)
  residual activity: 90.1%
FGR (human)
  residual activity: 21.2%
SYK (human)
  residual activity: 95.5%
GRK7 (human)
  residual activity: 95.6%
PLK3 (human)
  residual activity: 92.1%
SGK2 (human)
  residual activity: 97.3%
CSNK1E (human)
  residual activity: 95.1%
STK10 (human)
  residual activity: 11.9%
PRKCH (human)
  residual activity: 95.1%
STK4 (human)
  residual activity: 95.6%
HIPK3 (human)
  residual activity: 95.2%
MAP4K5 (human)
  residual activity: 11.1%
CDK5 CDK5R1 p35 (human)
  residual activity: 100%
AURKC (human)
  residual activity: 30.2%
CAMK1D (human)
  residual activity: 72.5%
NTRK1 (human)
  residual activity: 82.5%
MAP3K3 (human)
  residual activity: 105%
SLK (human)
  residual activity: 6.2%
MAP3K11 (human)
  residual activity: 95.5%
PAK2 (human)
  residual activity: 91.2%
CLK1 (human)
  residual activity: 89.9%
VRK1 (human)
  residual activity: 96.3%
HIPK4 (human)
  residual activity: 86%
RAF1 (human)
  residual activity: 97%
WEE1 (human)
  residual activity: 89.6%
NEK1 (human)
  residual activity: 96.7%
HIPK1 (human)
  residual activity: 100%
PNCK (human)
  residual activity: 93.2%
MAPKAPK2 (human)
  residual activity: 98%
AURKA (human)
  residual activity: 18.9%
TAOK3 (human)
  residual activity: 87.9%
FGFR4 (human)
  residual activity: 92.9%

## CC(C)[C@H](CO)Nc1nc(Nc2cccc(Cl)c2)c2ncn(C(C)C)c2n1
NTRK3 (human)
  residual activity: 15%
TNK2 (human)
  residual activity: 55.6%
MAP3K8 (human)
  residual activity: 101%
CDK9 CCNT1 (human)
  residual activity: 65%
CDK9 CCNK (human)
  residual activity: 63.6%
MAP3K2 (human)
  residual activity: 97.8%
IRAK4 (human)
  residual activity: 88.6%
SGK3 (human)
  residual activity: 97.6%
RPS6KB1 (human)
  residual activity: 90.8%
FLT1 (human)
  residual activity: 102%
TEK (human)
  residual activity: 93.8%
FGR (human)
  residual activity: 44.3%
SYK (human)
  residual activity: 88.9%
GRK7 (human)
  residual activity: 88.8%
PLK3 (human)
  residual activity: 86.4%
SGK2 (human)
  residual activity: 103%
CSNK1E (human)
  residual activity: 87.3%
STK10 (human)
  residual activity: 81.8%
PRKCH (human)
  residual activity: 92.7%
STK4 (human)
  residual activity: 87.7%
HIPK3 (human)
  residual activity: 102%
MAP4K5 (human)
  residual activity: 97.5%
CDK5 CDK5R1 p35 (human)
  residual activity: 2.61%
AURKC (human)
  residual activity: 93.2%
CAMK1D (human)
  residual activity: 103%
NTRK1 (human)
  residual activity: 67.3%
MAP3K3 (human)
  residual activity: 102%
SLK (human)
  residual activity: 73.1%
MAP3K11 (human)
  residual activity: 40.2%
PAK2 (human)
  residual activity: 103%
CLK1 (human)
  residual activity: 67.5%
VRK1 (human)
  residual activity: 99.5%
HIPK4 (human)
  residual activity: 88.7%
RAF1 (human)
  residual activity: 98.9%
WEE1 (human)
  residual activity: 82.6%
NEK1 (human)
  residual activity: 107%
HIPK1 (human)
  residual activity: 103%
PNCK (human)
  residual activity: 97.8%
MAPKAPK2 (human)
  residual activity: 102%
AURKA (human)
  residual activity: 80.6%
TAOK3 (human)
  residual activity: 91.1%
FGFR4 (human)
  residual activity: 79%
